How the values were obtained:
[1] = target: EGFR (Homo sapiens (Human), UniProt P00533); test: EGFR kinase inhibition, luciferase-coupled chemiluminescent assay (LCCA); details: read-out: EGFR IC50
[2] = target: EphB4 (Homo sapiens (Human), UniProt P54760); test: EphB4 kinase inhibition, 33P phosphoryl transfer assay (radiometric); format: biochemical
Protocol: Phosphorylated substrate products are quantified by scintillation spectrometry.
Kinase activity and compound inhibition are investigated using one or more of the three assay formats described below. The ATP concentrations are selected near its Michaelis-Menten constant (KM) for each individual kinase. Dose-response experiments are performed at ten different inhibitor concentrations in a 384-well plate format. […] These parameters are obtained by nonlinear regression algorithm built into ActivityBase software (available from ID Business Solutions Ltd., of Guildford, Surrey, UK). ^33P Phosphoryl Transfer Assay (Radiometric)
Greiner 384-well white clear bottom high binding plates (available from Greiner Bio-One, Inc., of Longwood, Fla.) are coated with 2 μg/well of protein or peptide substrate in a 50 μL volume overnight at ambient temperature. […] The coating solution is aspirated and the plates are washed once with 50 μL of assay buffer and padded dry. Subsequently compounds and enzymes are mixed with γ ^33P-ATP (3.3 μCi/nmol) in a total volume of 20 uL in suitable assay buffers (see Table 2). For example the final EphB4 reaction solution contains 20 mM TrisHCl, pH 7.5, 10 mM MgCl2, 0.01% Triton X-100, 0.1 mM NaVO3, 5 nM EphB4 enzyme and 5 μM ATP. […] The plates are subsequently washed 6-12 times with PBST or TBS buffer.

Chain of EphB4 (P54760 605-890): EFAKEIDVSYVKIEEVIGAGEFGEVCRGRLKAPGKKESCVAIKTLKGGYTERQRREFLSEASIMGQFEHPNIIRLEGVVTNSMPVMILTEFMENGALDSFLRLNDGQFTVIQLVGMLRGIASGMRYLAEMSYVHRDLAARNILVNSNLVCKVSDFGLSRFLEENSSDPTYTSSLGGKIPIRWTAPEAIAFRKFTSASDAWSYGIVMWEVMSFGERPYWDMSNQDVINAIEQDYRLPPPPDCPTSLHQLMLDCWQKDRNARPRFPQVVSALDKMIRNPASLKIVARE
Chain of EGFR (P00533 672-1210): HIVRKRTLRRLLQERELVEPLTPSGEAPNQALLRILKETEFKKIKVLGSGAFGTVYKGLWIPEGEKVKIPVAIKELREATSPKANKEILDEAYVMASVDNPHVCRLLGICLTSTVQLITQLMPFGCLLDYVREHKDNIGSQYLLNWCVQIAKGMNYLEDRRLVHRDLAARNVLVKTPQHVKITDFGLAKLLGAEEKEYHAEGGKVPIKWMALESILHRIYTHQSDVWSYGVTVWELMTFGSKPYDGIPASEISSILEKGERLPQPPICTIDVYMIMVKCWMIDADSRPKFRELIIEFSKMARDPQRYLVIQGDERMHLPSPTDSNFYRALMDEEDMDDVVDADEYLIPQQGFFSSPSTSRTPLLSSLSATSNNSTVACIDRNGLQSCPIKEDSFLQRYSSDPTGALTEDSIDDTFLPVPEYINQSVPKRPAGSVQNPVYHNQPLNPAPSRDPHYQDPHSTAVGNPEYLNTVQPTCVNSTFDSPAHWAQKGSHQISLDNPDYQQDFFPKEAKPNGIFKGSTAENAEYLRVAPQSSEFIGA

SMILES | IC50 [1] [nM] | IC50 [2] [nM]
COc1cc2c(Nc3cccc(Br)c3)ncnc2cc1O[C@@H]1CO[C@@H]2[C@H]1OC[C@H]2F [Example 129, 1,4:3,6-dianhydro-5-O-[4-[(3-bromophenyl)amino]-6-(methyloxy)quinazolin-7-yl]-2-deoxy-2-fluoro-D-iditol] | < 50 | < 50
COc1cc2c(Nc3ccc(Cl)c(Cl)c3)ncnc2cc1OCc1ccncc1 [Example 172, N-(3,4-dichlorophenyl)-6-(methyloxy)-7-[(pyridin-4-ylmethyl)oxy]quinazolin-4-amine] | < 50 | < 50
CCCN1CCCOC(COc2cc3ncnc(Nc4ccc(Cl)c(Cl)c4)c3cc2OC)C1 (stereo not shown) [Example 258, N-(3,4-dichlorophenyl)-6-(methyloxy)-7-{[(4-propyl-1,4-oxazepan-2-yl)methyl]oxy}quinazolin-4-amine] | < 50 | 50 to 1000
COc1cc2c(Nc3cccc(Cl)c3)ncnc2cc1O[C@@H]1CO[C@@H]2[C@H]1OC[C@H]2F [Example 114, 1,4:3,6-dianhydro-5-O-[4-[(3-chlorophenyl)amino]-6-(methyloxy)quinazolin-7-yl]-2-deoxy-2-fluoro-D-iditol] | < 50 | < 50
COc1cc2c(Nc3cc(Cl)c(Cl)cc3F)ncnc2cc1O[C@@H]1CO[C@@H]2[C@H]1OC[C@H]2F [Example 105, 1,4:3,6-dianhydro-2-deoxy-5-O-[4-[(4,5-dichloro-2-fluorophenyl)amino]-6-(methyloxy)quinazolin-7-yl]-2-fluoro-D-iditol] | < 50 | < 50
COc1cc(OC)c(Nc2ncnc3cc(O[C@@H]4CO[C@@H]5[C@H]4OC[C@H]5F)c(OC)cc23)cc1Cl [Example 135, 1,4:3,6-dianhydro-5-O-[4-{[5-chloro-2,4-bis(methyloxy)phenyl]amino}-6-(methyloxy)quinazolin-7-yl]-2-deoxy-2-fluoro-D-iditol] | < 50 | < 50
COc1cc2c(Nc3ccc(Cl)c(Cl)c3)ncnc2cc1OCC1CN(C2CCCC2)CCO1 (stereo not shown) [Example 269, 7-{[(4-cyclopentylmorpholin-2-yl)methyl]oxy}-N-(3,4-dichlorophenyl)-6-(methyloxy)quinazolin-4-amine] | < 50 | 50 to 1000
COc1cc2c(Nc3ccc(Cl)c(Cl)c3)ncnc2cc1OCc1noc(C2CCCN(C)C2)n1 (stereo not shown) [Example 156, N-(3,4-dichlorophenyl)-6-(methyloxy)-7-({[5-(1-methylpiperidin-3-yl)-1,2,4-oxadiazol-3-yl]methyl}oxy)quinazolin-4-amine] | < 50 | 50 to 1000
COc1cc2c(Nc3ccc(Cl)c(Cl)c3)ncnc2cc1OCC1CN(CC2CC2)CCCO1 (stereo not shown) [Example 259, 7-({[4-(cyclopropylmethyl)-1,4-oxazepan-2-yl]methyl}oxy)-N-(3,4-dichlorophenyl)-6-(methyloxy)quinazolin-4-amine] | < 50 | 50 to 1000
COc1cc2c(Nc3ccc(F)c(F)c3F)ncnc2cc1O[C@@H]1CO[C@@H]2[C@H]1OC[C@H]2F [Example 84, 1,4:3,6-dianhydro-2-deoxy-2-fluoro-5-O-{6-(methyloxy)-4-[(2,3,4-trifluorophenyl)amino]quinazolin-7-yl}-D-iditol] | < 50 | < 50
COc1cc2c(Nc3ccc(Cl)c(Cl)c3)ncnc2cc1OCc1noc(C2CCN(C)CC2)n1 [Example 142, N-(3,4-dichlorophenyl)-6-(methyloxy)-7-({[5-(1-methylpiperidin-4-yl)-1,2,4-oxadiazol-3-yl]methyl}oxy)quinazolin-4-amine] | < 50 | 50 to 1000
COc1cc2c(Nc3ccc(Cl)c(Cl)c3)ncnc2cc1OCc1noc(C2CCCCN2)n1 (stereo not shown) [Example 145, N-(3,4-dichlorophenyl)-6-(methyloxy)-7-{[(5-piperidin-2-yl-1,2,4-oxadiazol-3-yl)methyl]oxy}quinazolin-4-amine] | < 50 | 50 to 1000
COc1cc2c(Nc3ccc(Cl)c(Cl)c3)ncnc2cc1OCc1nc(CN2CCOCC2)no1 [Example 143, N-(3,4-dichlorophenyl)-6-(methyloxy)-7-({[3-(morpholin-4-ylmethyl)-1,2,4-oxadiazol-5-yl]methyl}oxy)quinazolin-4-amine] | < 50 | 50 to 1000
COc1cc2c(Nc3ccc(Br)c(Cl)c3Cl)ncnc2cc1O[C@@H]1CO[C@@H]2[C@H]1OC[C@H]2F [Example 103, 1,4:3,6-dianhydro-5-O-[4-[(4-bromo-2,3-dichlorophenyl)amino]-6-(methyloxy)quinazolin-7-yl]-2-deoxy-2-fluoro-D-iditol] | < 50 | < 50
COC(=O)CCN1CCOC(COc2cc3ncnc(Nc4ccc(Cl)c(Cl)c4)c3cc2OC)C1 (stereo not shown) [Example 276, methyl 3-[2-({[4-[(3,4-dichlorophenyl)amino]-6-(methyloxy)quinazolin-7-yl]oxy}methyl)morpholin-4-yl]propanoate] | < 50 | –
COc1cc2c(Nc3ccc(Cl)c(Cl)c3)ncnc2cc1OCc1c(OC)ccc2cc(Br)ccc12 [Example 169, 7-({[6-bromo-2-(methyloxy)naphthalen-1-yl]methyl}oxy)-N-(3,4-dichlorophenyl)-6-(methyloxy)quinazolin-4-amine] | < 50 | –
COc1cc2c(Nc3ccc(Cl)cc3Cl)ncnc2cc1O[C@@H]1CO[C@@H]2[C@H]1OC[C@H]2F [Example 117, 1,4:3,6-dianhydro-2-deoxy-5-O-[4-[(2,4-dichlorophenyl)amino]-6-(methyloxy)quinazolin-7-yl]-2-fluoro-D-iditol] | < 50 | < 50
COc1cc2c(Nc3ccc(F)cc3Br)ncnc2cc1O[C@@H]1CO[C@@H]2[C@H]1OC[C@H]2F [Example 86, 1,4:3,6-dianhydro-5-O-[4-[(2-bromo-4-fluorophenyl)amino]-6-(methyloxy)quinazolin-7-yl]-2-deoxy-2-fluoro-D-iditol] | < 50 | –
COc1cc2c(Nc3ccccc3F)ncnc2cc1O[C@@H]1CO[C@@H]2[C@H]1OC[C@H]2F [Example 113, 1,4:3,6-dianhydro-2-deoxy-2-fluoro-5-O-[4-[(2-fluorophenyl)amino]-6-(methyloxy)quinazolin-7-yl]-D-iditol] | < 50 | –
COc1cc2c(Nc3ccc(Br)c(Cl)c3F)ncnc2cc1O[C@@H]1CO[C@@H]2[C@H]1OC[C@H]2F [Example 102, 1,4:3,6-dianhydro-5-O-[4-[(4-bromo-3-chloro-2-fluorophenyl)amino]-6-(methyloxy)quinazolin-7-yl]-2-deoxy-2-fluoro-D-iditol] | < 50 | –
COc1cc2c(Nc3ccc(Br)c(Cl)c3)ncnc2cc1O[C@H]1CO[C@@H]2[C@@H](OC)[C@@H](OC)O[C@@H]21 [Example 82, methyl 3,6-anhydro-5-O-[4-[(4-bromo-3-chlorophenyl)amino]-6-(methyloxy)quinazolin-7-yl]-2-O-methyl-beta-L-idofuranoside] | < 50 | –
COc1cc2c(Nc3cc(Cl)ccc3F)ncnc2cc1O[C@@H]1CO[C@@H]2[C@H]1OC[C@H]2F [Example 93, 1,4:3,6-dianhydro-5-O-[4-[(5-chloro-2-fluorophenyl)amino]-6-(methyloxy)quinazolin-7-yl]-2-deoxy-2-fluoro-D-iditol] | < 50 | –
COc1cc2c(Nc3cccc(Cl)c3C)ncnc2cc1O[C@@H]1CO[C@@H]2[C@H]1OC[C@H]2F [Example 110, 1,4:3,6-dianhydro-5-O-[4-[(3-chloro-2-methylphenyl)amino]-6-(methyloxy)quinazolin-7-yl]-2-deoxy-2-fluoro-D-iditol] | < 50 | –
COc1ccc(-c2cc(COc3cc4ncnc(Nc5ccc(Cl)c(Cl)c5)c4cc3OC)on2)cc1 [Example 180, N-(3,4-dichlorophenyl)-6-(methyloxy)-7-[({3-[4-(methyloxy)phenyl]isoxazol-5-yl}methyl)oxy]quinazolin-4-amine] | < 50 | –
COc1cc2c(Nc3ccc(F)c(F)c3)ncnc2cc1O[C@@H]1CO[C@@H]2[C@H]1OC[C@H]2F [Example 111, 1,4:3,6-dianhydro-2-deoxy-5-O-[4-[(3,4-difluorophenyl)amino]-6-(methyloxy)quinazolin-7-yl]-2-fluoro-D-iditol] | < 50 | –
COc1cc2c(Nc3cc(C)cc(C)c3)ncnc2cc1O[C@@H]1CO[C@@H]2[C@H]1OC[C@H]2F [Example 133, 1,4:3,6-dianhydro-2-deoxy-5-O-[4-[(3,5-dimethylphenyl)amino]-6-(methyloxy)quinazolin-7-yl]-2-fluoro-D-iditol] | < 50 | –
COc1cc2c(Nc3ccc(F)cc3C(F)(F)F)ncnc2cc1O[C@@H]1CO[C@@H]2[C@H]1OC[C@H]2F [Example 126, 1,4:3,6-dianhydro-2-deoxy-2-fluoro-5-O-[4-{[4-fluoro-2-(trifluoromethyl)phenyl]amino}-6-(methyloxy)quinazolin-7-yl]-D-iditol] | < 50 | –
COc1cc2c(Nc3ccc(Cl)c(Cl)c3F)ncnc2cc1OCC1CCC2CCCCN2C1 (stereo not shown) [Example 83, N-(3,4-dichloro-2-fluorophenyl)-6-(methyloxy)-7-[(octahydro-2H-quinolizin-3-ylmethyl)oxy]quinazolin-4-amine] | < 50 | –

From patent US9796704B2, “Substituted quinazolines as receptor-type kinase inhibitors” (Symphony Evolution, Inc., priority 2002, dated 2017)
